Data published in the supplement of paper PMC10307832.

Columns and labels:
Assay in all cases: relative viability (nuclei count vs DMSO), 5 days (fraction); higher = more cells survive
[1] = compound: COC1=CC=C(C=C1)CN2C=CC3=C2C=C(C=C3)C(=O)NO + Cc1nc(NC(=O)N2CCC[C@H]2C(N)=O)sc1-c1ccnc(C(C)(C)C(F)(F)F)c1 [Alpelisib] (partner 2 µM)
How it was run: (§1)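 Relative viability divides the nuclei count in treated wells by that in vehicle wells. Lung cancer cell lines were seeded in 1536-well plates, dosed by pin tool the next day, and fixed and stained after 5 days in one step with final 0.05% Triton X-100, 1% formaldehyde and 1 ug/ml Hoechst. Dosing was a single drug or a fixed anchor-drug dose plus five library-drug doses (not always all listed) in √10 steps, and values are medians of duplicate plates imaged at 4×.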

Veliparib + Foretinib = compound: C[C@]1(c2nc3c(C(N)=O)cccc3[nH]2)CCCN1 [Veliparib] + COc1cc2c(Oc3ccc(NC(=O)C4(C(=O)Nc5ccc(F)cc5)CC4)cc3F)ccnc2cc1OCCCN1CCOCC1 [Foretinib] (partner 0.25 µM)
How it was run: as §1

Veliparib + Phenformin = compound: C[C@]1(c2nc3c(C(N)=O)cccc3[nH]2)CCCN1 [Veliparib] + N=C(N)NC(=N)NCCc1ccccc1 [Phenformin] (partner 250 µM)
How it was run: as §1

[2] = compound: COC1=CC=C(C=C1)CN2C=CC3=C2C=C(C=C3)C(=O)NO + Cc1nc(Nc2ncc(C(=O)Nc3c(C)cccc3Cl)s2)cc(N2CCN(CCO)CC2)n1 [Dasatinib] (partner 0.075 µM)
How it was run: as §1

Row | Cell Line | relative viability ([1]; first compound 0.08 µM) | relative viability ([1]; first compound 0.253 µM) | relative viability ([1]; first compound 0.8 µM) | relative viability ([1]; first compound 2.53 µM) | relative viability ([1]; first compound 8 µM) | relative viability (Veliparib + Foretinib; first compound 0.2 µM) | relative viability (Veliparib + Foretinib; first compound 0.6325 µM) | relative viability (Veliparib + Foretinib; first compound 2 µM) | relative viability (Veliparib + Phenformin; first compound 0.02 µM) | relative viability (Veliparib + Phenformin; first compound 0.06325 µM) | relative viability (Veliparib + Phenformin; first compound 0.2 µM) | relative viability (Veliparib + Phenformin; first compound 0.6325 µM) | relative viability (Veliparib + Phenformin; first compound 2 µM) | relative viability ([2]; first compound 0.08 µM) | relative viability ([2]; first compound 0.253 µM) | relative viability ([2]; first compound 0.8 µM) | relative viability ([2]; first compound 2.53 µM) | relative viability ([2]; first compound 8 µM) | relative viability (Veliparib + Foretinib; first compound 0.02 µM) | relative viability (Veliparib + Foretinib; first compound 0.06325 µM)
1 | 201T | 0.948 | 1.08 | 1.07 | 1.03 | 1 | 1.2 | 1.03 | 1.14 | 0.411 | 0.356 | 0.463 | 0.457 | 0.462 | 0.625 | 0.662 | 0.607 | 0.573 | 0.545 |  | 
2 | A549 | 0.643 | 0.812 | 0.743 | 0.749 | 0.58 | 0.962 | 0.807 | 0.963 |  | 0.209 | 0.166 | 0.143 | 0.185 |  |  |  |  |  | 1.07 | 0.878
3 | A-427 |  | 1.15 | 1.13 | 1.15 | 1.06 | 0.991 | 0.981 | 1.11 |  | 0.29 | 0.328 | 0.391 | 0.278 |  | 0.75 | 0.769 | 0.669 | 0.503 |  | 0.936
4 | ABC-1 |  | 1.37 | 0.928 | 1 | 1.17 | 1.12 | 0.961 | 1.15 |  | 0.227 | 0.265 | 0.233 | 0.288 |  | 0.566 | 0.589 | 0.676 | 0.488 |  | 0.858
5 | BEN | 0.972 | 1.07 | 1.06 | 0.967 | 0.929 | 0.724 | 0.656 | 0.569 | 0.24 | 0.251 | 0.292 | 0.253 | 0.25 | 0.305 | 0.264 | 0.297 | 0.347 | 0.317 | 0.413 | 0.482
6 | CAL-12T | 1.22 | 1.31 | 1.19 | 1.19 | 1.24 | 1.15 | 1.09 | 1.29 | 0.436 | 0.617 | 0.537 | 0.54 | 0.53 | 0.426 | 0.613 | 0.478 | 0.414 | 0.408 | 1.2 | 1.04
7 | COR-L23 | 0.493 | 0.897 | 0.793 | 0.892 | 0.551 | 0.956 | 0.962 | 0.866 | 0.409 | 0.373 | 0.4 | 0.407 | 0.425 | 0.388 | 0.463 | 0.556 | 0.524 | 0.427 | 0.958 | 0.987
8 | COR-L 105 |  | 0.93 | 1.04 | 0.942 | 0.929 | 1.1 | 1.07 | 0.943 | 0.386 | 0.464 | 0.504 | 0.492 | 0.451 | 0.287 | 0.32 | 0.35 | 0.323 | 0.237 | 1.17 | 1
9 | Calu-6 | 0.859 | 0.881 | 0.897 | 1.02 | 0.815 | 0.852 | 0.84 | 0.969 |  |  |  |  |  |  |  |  |  |  | 0.967 | 0.82
10 | ChaGo-K-1 |  |  |  |  |  | 0.845 | 0.784 | 0.923 | 0.326 | 0.517 | 0.465 | 0.471 | 0.514 |  | 0.589 | 0.631 | 0.584 | 0.486 | 0.874 | 0.873
11 | EBC-1 | 0.817 | 0.842 | 0.848 | 0.815 | 0.737 | 0.12 | 0.12 | 0.108 |  |  |  |  |  |  |  |  |  |  | 0.0919 | 0.11
12 | EKVX | 0.749 | 0.856 | 0.878 | 0.91 | 0.897 | 0.728 | 0.834 | 0.533 | 0.194 | 0.162 | 0.249 | 0.221 | 0.222 | 0.552 | 0.576 | 0.592 | 0.709 | 0.568 | 0.395 | 0.386
13 | EMC-BAC-2 | 0.633 | 0.749 | 0.799 | 0.77 | 0.71 | 1.11 | 1.01 | 1.02 | 0.442 | 0.532 | 0.609 | 0.484 | 0.575 | 0.324 | 0.333 | 0.347 | 0.357 | 0.298 | 0.999 | 0.911
14 | EPLC-272H | 0.875 | 0.976 | 0.985 | 0.864 | 0.875 | 0.677 | 0.659 | 0.878 | 0.304 | 0.307 | 0.332 | 0.292 | 0.333 | 0.36 |  | 0.434 | 0.389 | 0.199 | 0.743 | 0.609
15 | H3255 | 0.629 | 0.722 | 0.679 | 0.717 | 0.621 | 0.811 | 0.78 | 0.795 | 0.365 | 0.367 | 0.36 | 0.322 | 0.329 | 0.41 | 0.417 | 0.348 | 0.389 | 0.276 | 0.739 | 0.462
16 | HARA | 0.149 | 0.851 | 0.765 | 0.917 | 0.693 | 0.866 | 0.851 | 0.828 | 0.412 | 0.399 | 0.48 | 0.409 | 0.474 |  | 0.284 | 0.256 | 0.177 | 0.189 | 0.898 | 1.06
17 | HCC-15 | 0.74 | 0.989 | 0.898 | 0.93 | 0.853 | 1.05 | 1.05 | 1.06 |  | 0.457 | 0.452 | 0.431 | 0.472 | 0.433 | 0.675 | 0.65 | 0.626 | 0.586 |  | 1.01
18 | HCC-44 | 0.732 | 0.901 | 0.786 | 0.823 | 0.778 |  |  |  | 0.157 | 0.144 | 0.188 | 0.17 | 0.135 |  |  |  |  |  |  | 
19 | HCC-78 |  | 0.359 | 0.395 | 0.35 | 0.305 | 0.568 | 0.539 | 0.571 | 0.688 | 0.711 | 0.71 | 0.758 | 0.544 | 0.436 | 0.362 | 0.391 | 0.449 | 0.39 | 0.557 | 0.557
